Experimental data from ChEMBL document CHEMBL3880438, “Identification of modulators of GPR41 or GPR42 activity” (2001).
Calls of active or inactive are those of the source. The rule behind the calls is not given here.

Assays:
[1] = biological target: T1, Free fatty acid receptor 3 (Rattus norvegicus) (UniProt B2GV46); assay: Agonist activity at GPR41 in rat primary adipocytes assessed as inhibition of isoprenaline-induced lipolysis by measuring glycerol level after 2 hrs; assay type: cell-based
T1 sequence (whole entry): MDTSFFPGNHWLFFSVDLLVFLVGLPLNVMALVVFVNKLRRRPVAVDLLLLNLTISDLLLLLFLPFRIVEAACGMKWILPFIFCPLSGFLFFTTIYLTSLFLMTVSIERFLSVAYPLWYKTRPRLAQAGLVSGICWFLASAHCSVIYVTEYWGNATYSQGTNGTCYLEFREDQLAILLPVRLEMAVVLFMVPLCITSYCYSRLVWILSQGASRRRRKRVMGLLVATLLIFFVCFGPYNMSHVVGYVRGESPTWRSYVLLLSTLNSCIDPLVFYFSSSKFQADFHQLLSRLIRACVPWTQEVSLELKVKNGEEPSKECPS

[2] = biological target: T2, Free fatty acid receptor 3 (Homo sapiens) (UniProt O14843); assay: Agonist activity at human GPR41 expressed in HEK293T cell membranes co-expressing Go1alpha protein assessed as stimulation of [35S]GTPgammaS binding at 0.1 microM to 0.1 M incubated for 30 mins by scintillation counting method; assay type: functional; details: HEK-293T
T2 sequence (whole entry): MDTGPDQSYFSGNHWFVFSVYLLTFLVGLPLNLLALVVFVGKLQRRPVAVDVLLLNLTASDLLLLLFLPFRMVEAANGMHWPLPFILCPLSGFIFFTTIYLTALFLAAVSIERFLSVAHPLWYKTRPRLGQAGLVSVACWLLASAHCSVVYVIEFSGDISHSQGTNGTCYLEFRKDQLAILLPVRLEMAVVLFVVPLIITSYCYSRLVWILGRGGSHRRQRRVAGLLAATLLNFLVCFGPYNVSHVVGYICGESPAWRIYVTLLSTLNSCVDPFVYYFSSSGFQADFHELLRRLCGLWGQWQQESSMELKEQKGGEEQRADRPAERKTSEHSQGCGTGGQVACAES

[3] = biological target: T1, Free fatty acid receptor 3 (Rattus norvegicus); assay: Agonist activity at rat GPR41 expressed in HEK293T cell membranes co-expressing Go1alpha protein assessed as stimulation of [35S]GTPgammaS binding at 0.1 microM to 0.1 M incubated for 30 mins by scintillation counting method; assay type: functional; details: HEK-293T
[4] = biological target: T2, Free fatty acid receptor 3 (Homo sapiens); assay: Agonist activity at human GPR41 expressed in HEK293T cell membranes co-expressing Go1lpha protein assessed as stimulation of [35S]GTPgammaS binding at 1 microM to 0.1 M incubated for 30 mins by scintillation counting method; assay type: functional; details: HEK-293T
[5] = biological target: T1, Free fatty acid receptor 3 (Rattus norvegicus); assay: Agonist activity at rat GPR41 expressed in Saccharomyces cerevisiae MMY11 co-expressing chimeric Gpa1/Ga0 at 0.5 mM to 50 mM incubated for 48 hrs by induction of FUSl-lacZ and FUS1-HIS3 reporter gene induction based pheromone response pathway coupled assay
[6] = biological target: T1, Free fatty acid receptor 3 (Rattus norvegicus); assay: Agonist activity at rat GPR41 expressed in Saccharomyces cerevisiae MMY11 co-expressing chimeric Gpa1/Galpha13 at 0.5 mM to 50 mM incubated for 48 hrs by induction of FUSl-lacZ and FUS1-HIS3 reporter gene induction based pheromone response pathway coupled assay
[7] = biological target: T1, Free fatty acid receptor 3 (Rattus norvegicus); assay: Agonist activity at rat GPR41 expressed in Saccharomyces cerevisiae MMY11 co-expressing chimeric Gpa1/Galpha12 at 0.5 mM to 50 mM incubated for 48 hrs by induction of FUSl-lacZ and FUS1-HIS3 reporter gene induction based pheromone response pathway coupled assay

Row | Compound | Activity [1] | Activity [2] | Activity [3] | other results
1 | CC(=O)[O-].N.O=CO.[Na+] | Dose-dependent effect | Active | Active | 
2 | CC(=O)[O-].[Na+] | Dose-dependent effect |  |  | 
3 | CCCC(=O)[O-].CCCCC(=O)[O-].[K+].[Na+] |  | Active |  | 
4 | CCCCC(=O)[O-].[K+] | Active |  |  | 
5 | CC(O)CC(=O)O (racemic) |  |  |  | Activity [4]: Active
6 | CCC(=O)[O-].[Na+] [SODIUM PROPIONATE] | Dose-dependent effect | Active | Active | Activity [5]: Active; Activity [6]: Active; Activity [7]: Active
